# According to ChEMBL document CHEMBL5370674, “Optimization of mTOR Inhibitors Using Property-Based Drug Design and Free-Wilson Analysis for Improved In Vivo Efficacy” (ACS Med Chem Lett, 2023):
# Tests used:
# [1] = Apparent intrinsic clearance in human liver microsomes; format: ADME, Microsome; settings: read-out: CLH(app)
# [2] = Toxicity in Balb/c Nu/Nu mouse xenografted with human A549 cells assessed as reduction in body weight at 30 mg/kg, po administrated for 14 days; format: organism-based; parameters: scale not given: the % may be the effect or the level left; settings: in vivo, 336 h, time 14 day
# [3] = Selectivity ratio of IC50 for inhibition of PI3Kalpha (unknown origin) to IC50 for inhibition of recombinant human GST-tagged mTOR (1360 to 2549 residues) expressed in insect cells
# A549 [4] = assay: Antitumor activity against human A549 cells xenografted in BALB/c Nu/Nu mouse assessed as tumor growth inhibition at 30 mg/kg, po administrated for 14 days relative to control; format: functional; settings: A549, 336 h, time 14 day, read-out: TGI
# [5] = Intrinsic clearance in human liver microsomes; format: ADME, Microsome; settings: read-out: CLH
# Cytochrome P450 3A4 = Cytochrome P450 3A4 (Homo sapiens, UniProt P08684); assay: Inhibition of CYP3A4 (unknown origin); format: ADME
# Cytochrome P450 3A4, sequence (P08684 whole entry): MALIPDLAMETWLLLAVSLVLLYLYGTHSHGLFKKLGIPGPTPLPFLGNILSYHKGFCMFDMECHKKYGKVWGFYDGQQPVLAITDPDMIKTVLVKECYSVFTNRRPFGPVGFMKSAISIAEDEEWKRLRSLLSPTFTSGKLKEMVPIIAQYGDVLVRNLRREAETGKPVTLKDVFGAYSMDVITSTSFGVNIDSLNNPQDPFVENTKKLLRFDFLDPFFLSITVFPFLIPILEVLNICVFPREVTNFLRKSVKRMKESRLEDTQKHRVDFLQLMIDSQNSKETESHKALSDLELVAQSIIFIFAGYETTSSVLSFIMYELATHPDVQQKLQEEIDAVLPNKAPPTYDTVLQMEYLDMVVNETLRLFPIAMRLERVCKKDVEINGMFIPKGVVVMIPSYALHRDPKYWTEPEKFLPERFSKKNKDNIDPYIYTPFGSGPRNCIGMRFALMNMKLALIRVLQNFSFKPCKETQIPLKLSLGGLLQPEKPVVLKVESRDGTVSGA
# Cytochrome P450 2C19 = Cytochrome P450 2C19 (Homo sapiens, UniProt P33261); assay: Inhibition of CYP2C19 (unknown origin); format: ADME
# Cytochrome P450 2C19, sequence (P33261 whole entry): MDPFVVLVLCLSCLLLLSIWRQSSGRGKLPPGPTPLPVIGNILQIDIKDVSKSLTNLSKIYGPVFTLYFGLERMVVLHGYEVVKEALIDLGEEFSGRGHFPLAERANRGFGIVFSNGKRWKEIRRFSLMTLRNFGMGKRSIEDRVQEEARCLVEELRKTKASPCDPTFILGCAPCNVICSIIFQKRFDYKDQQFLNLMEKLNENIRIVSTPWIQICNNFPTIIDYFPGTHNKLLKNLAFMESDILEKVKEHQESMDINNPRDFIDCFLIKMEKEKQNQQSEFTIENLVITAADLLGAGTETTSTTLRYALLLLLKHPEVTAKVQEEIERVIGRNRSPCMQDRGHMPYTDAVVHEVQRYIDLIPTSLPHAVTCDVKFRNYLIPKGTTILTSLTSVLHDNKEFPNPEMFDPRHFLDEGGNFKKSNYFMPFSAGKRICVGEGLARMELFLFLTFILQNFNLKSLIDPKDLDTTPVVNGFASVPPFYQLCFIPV
# Cytochrome P450 1A2 = target: T1, Cytochrome P450 1A2 (Homo sapiens, UniProt P05177); assay: Inhibition of CYP1A2 (unknown origin); format: ADME
# T1 sequence (P05177 whole entry): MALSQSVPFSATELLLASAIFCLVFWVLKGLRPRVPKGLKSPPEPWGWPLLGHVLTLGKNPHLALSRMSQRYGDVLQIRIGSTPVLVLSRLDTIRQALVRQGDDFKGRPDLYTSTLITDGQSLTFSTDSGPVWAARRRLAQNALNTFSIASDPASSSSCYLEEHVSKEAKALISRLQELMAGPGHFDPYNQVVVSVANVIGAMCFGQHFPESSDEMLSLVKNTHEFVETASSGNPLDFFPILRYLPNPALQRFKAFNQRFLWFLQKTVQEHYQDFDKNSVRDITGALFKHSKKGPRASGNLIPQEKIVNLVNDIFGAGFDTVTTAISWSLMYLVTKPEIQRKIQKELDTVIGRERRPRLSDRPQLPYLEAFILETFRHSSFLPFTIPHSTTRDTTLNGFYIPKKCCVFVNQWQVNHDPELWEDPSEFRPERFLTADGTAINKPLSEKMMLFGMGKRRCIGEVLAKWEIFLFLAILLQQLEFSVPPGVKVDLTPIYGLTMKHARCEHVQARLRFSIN
# Cytochrome P450 2C9 = Cytochrome P450 2C9 (Homo sapiens, UniProt P11712); assay: Inhibition of CYP2C9 (unknown origin); format: ADME
# Cytochrome P450 2C9, sequence (P11712 whole entry): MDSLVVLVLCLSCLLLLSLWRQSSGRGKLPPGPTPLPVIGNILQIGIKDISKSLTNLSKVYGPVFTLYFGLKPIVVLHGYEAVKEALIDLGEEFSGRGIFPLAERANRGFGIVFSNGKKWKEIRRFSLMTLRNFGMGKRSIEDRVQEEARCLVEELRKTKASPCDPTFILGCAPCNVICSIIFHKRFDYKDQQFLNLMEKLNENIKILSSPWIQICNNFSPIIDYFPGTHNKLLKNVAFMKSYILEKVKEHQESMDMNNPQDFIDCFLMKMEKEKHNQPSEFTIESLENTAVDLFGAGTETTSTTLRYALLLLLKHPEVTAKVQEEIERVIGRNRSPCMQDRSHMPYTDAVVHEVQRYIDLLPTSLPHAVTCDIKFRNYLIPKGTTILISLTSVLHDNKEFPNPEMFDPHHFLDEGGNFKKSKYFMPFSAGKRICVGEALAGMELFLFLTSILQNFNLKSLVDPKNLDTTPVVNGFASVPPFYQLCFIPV
# Cytochrome P450 2C8 = target: T2, Cytochrome P450 2C8 (Homo sapiens, UniProt P10632); assay: Inhibition of CYP2C8 (unknown origin); format: ADME
# T2 sequence (P10632 whole entry): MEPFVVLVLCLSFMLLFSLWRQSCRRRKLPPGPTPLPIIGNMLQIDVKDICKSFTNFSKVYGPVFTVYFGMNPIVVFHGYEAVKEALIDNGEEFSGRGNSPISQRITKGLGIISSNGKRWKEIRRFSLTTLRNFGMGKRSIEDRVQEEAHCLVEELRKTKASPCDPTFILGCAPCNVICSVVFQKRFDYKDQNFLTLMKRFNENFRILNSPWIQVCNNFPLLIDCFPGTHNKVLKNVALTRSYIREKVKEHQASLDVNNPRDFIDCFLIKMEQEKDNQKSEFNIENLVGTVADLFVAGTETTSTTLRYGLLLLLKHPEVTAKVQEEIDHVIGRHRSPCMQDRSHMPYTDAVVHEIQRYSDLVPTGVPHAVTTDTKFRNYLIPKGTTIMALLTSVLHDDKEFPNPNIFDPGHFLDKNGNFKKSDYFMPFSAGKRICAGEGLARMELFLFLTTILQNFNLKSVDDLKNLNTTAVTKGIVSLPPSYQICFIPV
# Cytochrome P450 2D6 = Cytochrome P450 2D6 (Homo sapiens, UniProt P10635); assay: Inhibition of CYP2D6 (unknown origin); format: ADME
# Cytochrome P450 2D6, sequence (P10635 whole entry): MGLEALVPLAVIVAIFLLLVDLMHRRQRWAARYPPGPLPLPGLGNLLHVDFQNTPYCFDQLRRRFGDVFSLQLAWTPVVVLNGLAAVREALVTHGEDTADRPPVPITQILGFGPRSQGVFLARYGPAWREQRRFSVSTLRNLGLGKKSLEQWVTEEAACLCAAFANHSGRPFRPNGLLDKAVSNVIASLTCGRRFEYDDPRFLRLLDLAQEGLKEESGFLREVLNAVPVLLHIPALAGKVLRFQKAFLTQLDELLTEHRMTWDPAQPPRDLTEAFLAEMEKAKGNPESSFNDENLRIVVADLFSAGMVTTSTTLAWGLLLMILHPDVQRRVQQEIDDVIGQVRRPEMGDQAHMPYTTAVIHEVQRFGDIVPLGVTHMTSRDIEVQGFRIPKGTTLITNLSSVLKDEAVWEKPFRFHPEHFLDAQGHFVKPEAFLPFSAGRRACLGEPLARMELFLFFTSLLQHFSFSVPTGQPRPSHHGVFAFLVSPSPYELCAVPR
# [6] = Toxicity in Balb/c Nu/Nu mouse xenografted with human A549 cells assessed as reduction in body weight at 2 to 6 mg/kg, po administrated for 14 days; format: organism-based; parameters: scale not given: the % may be the effect or the level left; settings: in vivo, 336 h, dose 2-6 mg/kg, time 14 day
# A549 [7] = assay: Antitumor activity against human A549 cells xenografted in BALB/c Nu/Nu mouse assessed as tumor growth inhibition at 2 mg/kg, po administrated for 14 days relative to control; format: functional; settings: A549, 336 h, time 14 day, read-out: TGI
# [8] = Fraction absorbed in rat at 4 mg/kg, po; format: ADME, organism-based; settings: in vivo, read-out: Fabs
Compound,CLint scaled [1],other results
CC(F)(F)CN1C(=O)[C@]2(C)COCCN2c2nc(-c3ccc(NC(=O)NC4CC4)cc3)ncc21,,Activity [2]: < 20%; Ratio IC50 [3]: > 50; inhibition in vivo at 30 mg/kg (A549 [4]): 100%; CLint scaled [5]: < 0.6 L/h/kg
CC(=O)N1CCC(N2C(=O)[C@]3(C)COCCN3c3nc(-c4cccc5[nH]ccc45)ncc32)CC1,0.36 L/h/kg,
C[C@@]12COCCN1c1nc(-c3cnc4[nH]ccc4c3)ncc1N(C1CCOCC1)C2=O,0.36 L/h/kg,
C[C@@]12COCCN1c1nc(-c3cnc4[nH]ccc4c3)ncc1N(C1CCOC1)C2=O (mixture of isomers),0.72 L/h/kg,
Cc1cccc2c(-c3ncc4c(n3)N3CCOC[C@@]3(C)C(=O)N4C3(CCCO)CC3)c[nH]c12,0.36 L/h/kg,
C[C@@]12COCCN1c1nc(-c3cccc4[nH]ccc34)ncc1N([C@H]1CC[C@H](O)CC1)C2=O,,Activity [6]: < 20%; inhibition in vivo at 2 mg/kg (A549 [7]): 100%; Fa [8]: 100%
C[C@@]12COCCN1c1nc(-c3cnc4[nH]ccc4c3)ncc1N(C1CCN(S(C)(=O)=O)CC1)C2=O,0.36 L/h/kg,
COCCCN1C(=O)[C@]2(C)COCCN2c2nc(-c3cnc4[nH]ccc4c3)ncc21,1.92 L/h/kg,
C[C@@]12COCCN1c1nc(-c3cnc4[nH]ccc4c3)ncc1N(C1(CCO)CC1)C2=O,0.66 L/h/kg,

# Continued, in another order:
CLint scaled [1],Compound,other results
0.48 L/h/kg,Cc1ccc(-c2ncc3c(n2)N2CCOC[C@@]2(C)C(=O)N3[C@H]2CC[C@@H](O)CC2)c2cc[nH]c12,
0.36 L/h/kg,Cc1ccc(-c2ncc3c(n2)N2CCOC[C@@]2(C)C(=O)N3[C@H]2CC[C@H](O)CC2)c2cc[nH]c12,
0.6 L/h/kg,C[C@@]12COCCN1c1nc(-c3cccc4[nH]ccc34)ncc1N(C1CCOCC1)C2=O,IC50 (Cytochrome P450 3A4): > 40 µM; IC50 (Cytochrome P450 2C19): > 40 µM; IC50 (Cytochrome P450 1A2): > 40 µM; IC50 (Cytochrome P450 2C9): > 40 µM; IC50 (Cytochrome P450 2C8): > 40 µM; IC50 (Cytochrome P450 2D6): > 40 µM
0.36 L/h/kg,C[C@@]12COCCN1c1nc(-c3cccc4[nH]ccc34)ncc1N([C@H]1CC[C@@H](O)CC1)C2=O,
0.42 L/h/kg,Cc1cccc2c(-c3ncc4c(n3)N3CCOC[C@@]3(C)C(=O)N4[C@H]3CC[C@@H](O)CC3)c[nH]c12,
0.42 L/h/kg,Cc1cccc2c(-c3ncc4c(n3)N3CCOC[C@@]3(C)C(=O)N4[C@H]3CC[C@H](O)CC3)c[nH]c12,
